How the values were obtained:
D(3) dopamine receptor = D(3) dopamine receptor (Homo sapiens, UniProt P35462); assay: DRUGMATRIX: Dopamine D3 radioligand binding (ligand: [3H] Spiperone); format: cell membranes, CHO, Membrane; conditions: cho
[1] = target: Mitogen-activated protein kinase 3 (Homo sapiens, UniProt P27361); assay: DRUGMATRIX: Protein Serine/Threonine Kinase, ERK1 enzyme inhibition (substrate: Myelin Basic Protein); set-up: species or system Escherichia coli; conditions: Not Active = under 50% inhibition at 10 µM
[2] = DRUGMATRIX: Tumor Necrosis Factor (TNF), Non-Selective radioligand binding (ligand: [125I] TNF-alpha); format: cell membranes, Membrane; conditions: u-937; Not Active = under 50% inhibition at 10 µM
[3] = DRUGMATRIX: Potassium Channel [KATP] radioligand binding (ligand: [3H] Glyburide); format: cell membranes, Membrane; conditions: hit-t15; Not Active = under 50% inhibition at 10 µM
[4] = target: Vascular endothelial growth factor receptor 1 (Homo sapiens, UniProt P17948); format: cell-based; conditions: huvec; note: in other assays of this panel Not Active means under 50% inhibition at 10 µM
Insulin receptor = Insulin receptor (Rattus norvegicus, UniProt P15127); format: cell membranes, Wistar, Liver, Membrane; note: in other assays of this panel Not Active means under 50% inhibition at 10 µM
Melanocortin receptor 5 = Melanocortin receptor 5 (Homo sapiens, UniProt P33032); format: cell membranes, HEK293, Membrane; conditions: hek293; note: in other assays of this panel Not Active means under 50% inhibition at 10 µM
Cytochrome P450 2A6 = target: T1, Cytochrome P450 2A6 (Homo sapiens, UniProt P11509); conditions: bti-tn-5b1-4; note: in other assays of this panel Not Active means under 50% inhibition at 10 µM
T1 sequence (P11509 whole entry): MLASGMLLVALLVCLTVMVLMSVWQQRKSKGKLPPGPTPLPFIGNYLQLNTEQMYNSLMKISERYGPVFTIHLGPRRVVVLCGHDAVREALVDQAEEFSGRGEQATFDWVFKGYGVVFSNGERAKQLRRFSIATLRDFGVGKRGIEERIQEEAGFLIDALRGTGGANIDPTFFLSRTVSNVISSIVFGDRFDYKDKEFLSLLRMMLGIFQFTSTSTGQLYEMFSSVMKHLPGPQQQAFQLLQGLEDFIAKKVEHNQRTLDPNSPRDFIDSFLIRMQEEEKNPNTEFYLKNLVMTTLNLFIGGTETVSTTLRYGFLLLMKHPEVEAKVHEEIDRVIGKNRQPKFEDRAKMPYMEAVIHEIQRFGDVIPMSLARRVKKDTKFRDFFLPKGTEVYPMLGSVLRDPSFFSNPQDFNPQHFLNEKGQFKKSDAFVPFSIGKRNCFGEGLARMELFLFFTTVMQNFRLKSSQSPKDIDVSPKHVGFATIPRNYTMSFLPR

Mitogen-activated protein kinase 3, sequence (P27361 whole entry): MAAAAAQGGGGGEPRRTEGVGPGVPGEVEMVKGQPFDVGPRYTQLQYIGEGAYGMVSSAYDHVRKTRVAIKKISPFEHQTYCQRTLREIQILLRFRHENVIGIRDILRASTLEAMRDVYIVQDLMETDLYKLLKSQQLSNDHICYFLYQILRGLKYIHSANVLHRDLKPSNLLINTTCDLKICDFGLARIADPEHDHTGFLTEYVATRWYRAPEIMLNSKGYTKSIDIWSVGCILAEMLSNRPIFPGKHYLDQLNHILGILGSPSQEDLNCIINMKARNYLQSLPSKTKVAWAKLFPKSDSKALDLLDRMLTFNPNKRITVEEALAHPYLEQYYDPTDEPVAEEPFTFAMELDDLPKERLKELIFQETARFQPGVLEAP
Insulin receptor, sequence (P15127 27-759 limits assumed): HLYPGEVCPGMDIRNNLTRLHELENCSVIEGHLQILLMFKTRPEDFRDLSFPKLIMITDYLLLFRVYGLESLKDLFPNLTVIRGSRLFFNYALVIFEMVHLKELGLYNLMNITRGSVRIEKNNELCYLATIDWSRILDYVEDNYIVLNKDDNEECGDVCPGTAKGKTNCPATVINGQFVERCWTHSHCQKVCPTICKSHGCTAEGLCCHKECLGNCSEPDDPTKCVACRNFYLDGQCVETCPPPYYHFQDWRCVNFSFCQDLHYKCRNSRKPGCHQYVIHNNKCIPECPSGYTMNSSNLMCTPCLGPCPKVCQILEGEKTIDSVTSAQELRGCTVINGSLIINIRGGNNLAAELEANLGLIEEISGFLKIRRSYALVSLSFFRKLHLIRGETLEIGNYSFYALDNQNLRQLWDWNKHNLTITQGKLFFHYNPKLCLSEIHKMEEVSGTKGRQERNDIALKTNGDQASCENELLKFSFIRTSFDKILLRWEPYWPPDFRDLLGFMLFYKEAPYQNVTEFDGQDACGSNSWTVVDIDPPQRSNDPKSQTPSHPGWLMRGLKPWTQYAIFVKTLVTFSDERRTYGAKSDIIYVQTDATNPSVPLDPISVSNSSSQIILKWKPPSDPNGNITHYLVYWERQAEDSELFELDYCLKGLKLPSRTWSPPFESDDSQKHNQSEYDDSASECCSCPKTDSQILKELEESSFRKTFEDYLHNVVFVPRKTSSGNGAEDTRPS
Insulin receptor, sequence (P15127 764-1383 limits assumed): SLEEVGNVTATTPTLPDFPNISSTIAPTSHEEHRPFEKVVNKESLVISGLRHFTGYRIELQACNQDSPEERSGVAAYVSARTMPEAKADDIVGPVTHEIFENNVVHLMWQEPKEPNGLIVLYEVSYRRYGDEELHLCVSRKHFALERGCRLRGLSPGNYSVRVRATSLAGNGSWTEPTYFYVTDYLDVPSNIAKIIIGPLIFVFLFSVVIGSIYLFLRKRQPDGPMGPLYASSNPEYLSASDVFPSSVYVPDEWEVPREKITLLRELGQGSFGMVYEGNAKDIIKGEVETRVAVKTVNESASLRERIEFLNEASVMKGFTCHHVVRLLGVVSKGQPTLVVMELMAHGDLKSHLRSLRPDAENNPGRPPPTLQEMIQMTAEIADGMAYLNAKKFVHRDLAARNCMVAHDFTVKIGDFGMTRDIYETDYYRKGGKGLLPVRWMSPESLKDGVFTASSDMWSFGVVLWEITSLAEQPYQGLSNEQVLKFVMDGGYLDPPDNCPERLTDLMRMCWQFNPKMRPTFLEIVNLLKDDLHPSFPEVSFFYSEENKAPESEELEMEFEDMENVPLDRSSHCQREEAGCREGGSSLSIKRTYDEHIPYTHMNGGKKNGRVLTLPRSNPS
Vascular endothelial growth factor receptor 1, sequence (P17948 whole entry): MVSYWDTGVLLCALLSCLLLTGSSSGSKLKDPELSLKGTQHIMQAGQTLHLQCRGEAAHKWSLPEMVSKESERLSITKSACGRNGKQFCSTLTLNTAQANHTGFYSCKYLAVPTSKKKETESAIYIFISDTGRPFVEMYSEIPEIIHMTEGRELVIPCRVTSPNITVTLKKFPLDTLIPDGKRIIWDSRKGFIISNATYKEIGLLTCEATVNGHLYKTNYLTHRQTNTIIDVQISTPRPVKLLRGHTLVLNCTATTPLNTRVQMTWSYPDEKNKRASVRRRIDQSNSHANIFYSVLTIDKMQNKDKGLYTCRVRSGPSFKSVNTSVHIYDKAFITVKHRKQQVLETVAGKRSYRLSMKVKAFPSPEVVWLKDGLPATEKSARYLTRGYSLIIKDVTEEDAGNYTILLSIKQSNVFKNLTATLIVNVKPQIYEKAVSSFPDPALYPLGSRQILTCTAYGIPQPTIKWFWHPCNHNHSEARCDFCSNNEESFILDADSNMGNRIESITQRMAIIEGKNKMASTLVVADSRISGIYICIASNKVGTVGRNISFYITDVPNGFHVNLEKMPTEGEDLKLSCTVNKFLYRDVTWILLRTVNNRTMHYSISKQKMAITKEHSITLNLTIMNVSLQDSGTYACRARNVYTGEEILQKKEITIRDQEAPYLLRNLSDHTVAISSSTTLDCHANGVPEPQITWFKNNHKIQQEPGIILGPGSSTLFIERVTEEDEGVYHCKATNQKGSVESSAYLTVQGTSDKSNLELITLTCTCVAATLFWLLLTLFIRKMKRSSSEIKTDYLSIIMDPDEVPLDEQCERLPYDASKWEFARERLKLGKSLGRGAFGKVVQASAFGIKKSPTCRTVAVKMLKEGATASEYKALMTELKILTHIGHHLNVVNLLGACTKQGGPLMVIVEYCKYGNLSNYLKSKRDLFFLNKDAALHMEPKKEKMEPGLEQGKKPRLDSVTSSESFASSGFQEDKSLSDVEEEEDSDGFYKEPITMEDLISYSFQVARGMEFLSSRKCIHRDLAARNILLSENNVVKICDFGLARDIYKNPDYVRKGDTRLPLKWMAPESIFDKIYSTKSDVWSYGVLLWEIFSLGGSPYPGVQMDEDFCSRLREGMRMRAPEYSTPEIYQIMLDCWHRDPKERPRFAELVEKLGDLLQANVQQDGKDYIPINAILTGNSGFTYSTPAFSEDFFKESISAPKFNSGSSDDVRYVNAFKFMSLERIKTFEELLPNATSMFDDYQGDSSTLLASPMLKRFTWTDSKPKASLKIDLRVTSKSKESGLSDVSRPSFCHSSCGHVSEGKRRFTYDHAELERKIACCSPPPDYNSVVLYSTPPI
D(3) dopamine receptor, sequence (P35462 whole entry): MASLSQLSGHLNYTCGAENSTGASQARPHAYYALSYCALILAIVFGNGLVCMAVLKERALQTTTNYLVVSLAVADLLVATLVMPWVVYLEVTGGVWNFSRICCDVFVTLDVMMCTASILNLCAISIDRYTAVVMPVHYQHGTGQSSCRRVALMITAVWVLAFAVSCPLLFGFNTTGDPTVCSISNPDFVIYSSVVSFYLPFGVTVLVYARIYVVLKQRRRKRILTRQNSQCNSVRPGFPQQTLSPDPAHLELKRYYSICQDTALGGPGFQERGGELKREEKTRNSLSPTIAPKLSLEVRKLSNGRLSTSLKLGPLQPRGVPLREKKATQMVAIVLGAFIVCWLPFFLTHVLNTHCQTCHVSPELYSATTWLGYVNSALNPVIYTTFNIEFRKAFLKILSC
Melanocortin receptor 5, sequence (P33032 whole entry): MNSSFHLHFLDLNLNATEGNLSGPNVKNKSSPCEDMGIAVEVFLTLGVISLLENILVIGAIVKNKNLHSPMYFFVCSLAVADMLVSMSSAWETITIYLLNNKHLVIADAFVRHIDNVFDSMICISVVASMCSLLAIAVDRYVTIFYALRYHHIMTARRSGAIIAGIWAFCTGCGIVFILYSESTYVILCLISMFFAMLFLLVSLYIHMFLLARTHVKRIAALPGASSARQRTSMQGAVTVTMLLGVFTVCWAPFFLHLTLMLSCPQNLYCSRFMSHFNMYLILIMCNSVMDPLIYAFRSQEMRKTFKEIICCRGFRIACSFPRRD

CN(C)C(=O)Oc1cc(OC(=O)N(C)C)cc(C(O)CNC(C)(C)C)c1 (stereo unspecified) [BAMBUTEROL]
Not Active: IC50 (D(3) dopamine receptor) | IC50 [1] | IC50 [2] | Ki [2] | IC50 [3] | Ki [3] | IC50 [4] | IC50 (Insulin receptor) | IC50 (Melanocortin receptor 5) | IC50 (Cytochrome P450 2A6) | Ki (Cytochrome P450 2A6)

C[C@H]1c2cccc(O)c2C(=O)C2=C(O)[C@]3(O)C(=O)C(C(N)=O)=C(O)[C@@H](N(C)C)[C@@H]3[C@@H](O)[C@@H]21.O [DOXYCYCLINE]
Not Active: IC50 (D(3) dopamine receptor) | IC50 [1] | IC50 [2] | Ki [2] | IC50 [3] | Ki [3] | IC50 [4] | IC50 (Insulin receptor) | IC50 (Melanocortin receptor 5) | IC50 (Cytochrome P450 2A6) | Ki (Cytochrome P450 2A6)

C[C@H]1O[C@@H](O[C@H]2[C@@H](O)C[C@H](O[C@H]3[C@@H](O)C[C@H](O[C@H]4CC[C@@]5(C)[C@H](CC[C@@H]6[C@@H]5C[C@@H](O)[C@]5(C)[C@@H](C7=CC(=O)OC7)CC[C@]65O)C4)O[C@@H]3C)O[C@@H]2C)C[C@H](O)[C@@H]1O [DIGOXIN]
Not Active: IC50 (D(3) dopamine receptor) | IC50 [1] | IC50 [2] | Ki [2] | IC50 [3] | Ki [3] | IC50 [4] | IC50 (Insulin receptor) | IC50 (Melanocortin receptor 5) | IC50 (Cytochrome P450 2A6) | Ki (Cytochrome P450 2A6)

c1ccc2c(c1)c1cccc3ccc4cccc2c4c31 [BENZO[E]PYRENE]
Not Active: IC50 (D(3) dopamine receptor) | IC50 [1] | IC50 [2] | Ki [2] | IC50 [3] | Ki [3] | IC50 [4] | IC50 (Insulin receptor) | IC50 (Melanocortin receptor 5) | IC50 (Cytochrome P450 2A6) | Ki (Cytochrome P450 2A6)

Sc1ncnc2nc[nH]c12 [MERCAPTOPURINE ANHYDROUS]
Not Active: IC50 (D(3) dopamine receptor) | IC50 [1] | IC50 [2] | Ki [2] | IC50 [3] | Ki [3] | IC50 [4] | IC50 (Insulin receptor) | IC50 (Melanocortin receptor 5) | IC50 (Cytochrome P450 2A6) | Ki (Cytochrome P450 2A6)

O=c1oc2ccccc2c(O)c1Cc1c(O)c2ccccc2oc1=O [DICUMAROL]
Not Active: IC50 (D(3) dopamine receptor) | IC50 [1] | IC50 [2] | Ki [2] | IC50 [3] | Ki [3] | IC50 [4] | IC50 (Insulin receptor) | IC50 (Melanocortin receptor 5) | IC50 (Cytochrome P450 2A6) | Ki (Cytochrome P450 2A6)

Nc1nc(N)nc(-c2cc(Cl)ccc2Cl)n1.O=C(O)/C=C\C(=O)O [IRSOGLADINE MALEATE]
Not Active: IC50 (D(3) dopamine receptor) | IC50 [1] | IC50 [2] | Ki [2] | IC50 [3] | Ki [3] | IC50 [4] | IC50 (Insulin receptor) | IC50 (Melanocortin receptor 5) | IC50 (Cytochrome P450 2A6) | Ki (Cytochrome P450 2A6)

CC1(C)O[C@@H]2C[C@H]3[C@@H]4CCC5=CC(=O)CC[C@]5(C)[C@@]4(F)[C@@H](O)C[C@]3(C)[C@]2(C(=O)CCl)O1 [HALCINONIDE]
Not Active: IC50 (D(3) dopamine receptor) | IC50 [1] | IC50 [2] | Ki [2] | IC50 [3] | Ki [3] | IC50 [4] | IC50 (Insulin receptor) | IC50 (Melanocortin receptor 5) | IC50 (Cytochrome P450 2A6) | Ki (Cytochrome P450 2A6)

O=c1[nH]c(=O)n([C@H]2C[C@H](O)[C@@H](CO)O2)cc1I [IDOXURIDINE]
Not Active: IC50 (D(3) dopamine receptor) | IC50 [1] | IC50 [2] | Ki [2] | IC50 [3] | Ki [3] | IC50 [4] | IC50 (Insulin receptor) | IC50 (Melanocortin receptor 5) | IC50 (Cytochrome P450 2A6) | Ki (Cytochrome P450 2A6)

CC(C)C(=O)Nc1ccc([N+](=O)[O-])c(C(F)(F)F)c1 [FLUTAMIDE]
Not Active: IC50 (D(3) dopamine receptor) | IC50 [1] | IC50 [2] | Ki [2] | IC50 [3] | Ki [3] | IC50 [4] | IC50 (Insulin receptor) | IC50 (Melanocortin receptor 5) | IC50 (Cytochrome P450 2A6) | Ki (Cytochrome P450 2A6)

CCC1(c2ccc(N)cc2)CCC(=O)NC1=O (stereo unspecified) [AMINOGLUTETHIMIDE]
Not Active: IC50 (D(3) dopamine receptor) | IC50 [1] | IC50 [2] | Ki [2] | IC50 [3] | Ki [3] | IC50 [4] | IC50 (Insulin receptor) | IC50 (Melanocortin receptor 5) | IC50 (Cytochrome P450 2A6) | Ki (Cytochrome P450 2A6)

Cc1ccc2cc3c(ccc4ccccc43)c3c2c1CC3 [3-METHYLCHOLANTHRENE]
Not Active: IC50 (D(3) dopamine receptor) | IC50 [1] | IC50 [2] | Ki [2] | IC50 [3] | Ki [3] | IC50 [4] | IC50 (Insulin receptor) | IC50 (Melanocortin receptor 5) | IC50 (Cytochrome P450 2A6) | Ki (Cytochrome P450 2A6)

O=C(O)CCCc1ccc(N(CCCl)CCCl)cc1 [CHLORAMBUCIL]
Not Active: IC50 (D(3) dopamine receptor) | IC50 [1] | IC50 [2] | Ki [2] | IC50 [3] | Ki [3] | IC50 [4] | IC50 (Insulin receptor) | IC50 (Melanocortin receptor 5) | IC50 (Cytochrome P450 2A6) | Ki (Cytochrome P450 2A6)

CC(NC(C)(C)C)C(=O)c1cccc(Cl)c1 (stereo unspecified) [BUPROPION]
Not Active: IC50 (D(3) dopamine receptor) | IC50 [1] | IC50 [2] | Ki [2] | IC50 [3] | Ki [3] | IC50 [4] | IC50 (Insulin receptor) | IC50 (Melanocortin receptor 5) | IC50 (Cytochrome P450 2A6) | Ki (Cytochrome P450 2A6)

C=C(C)C1(O)OC(=O)C=C1OC (stereo unspecified) [PENICILLIC ACID]
Not Active: IC50 (D(3) dopamine receptor) | IC50 [1] | IC50 [2] | Ki [2] | IC50 [3] | Ki [3] | IC50 [4] | IC50 (Insulin receptor) | Ki (Melanocortin receptor 5) | IC50 (Cytochrome P450 2A6) | Ki (Cytochrome P450 2A6)

CCCC1O[C@@H]2C[C@H]3[C@@H]4CCC5=CC(=O)C=C[C@]5(C)[C@H]4[C@@H](O)C[C@]3(C)[C@]2(C(=O)CO)O1 (stereo partly specified) [BUDESONIDE]
Not Active: IC50 (D(3) dopamine receptor) | IC50 [1] | IC50 [2] | Ki [2] | IC50 [3] | Ki [3] | IC50 [4] | IC50 (Insulin receptor) | IC50 (Melanocortin receptor 5) | IC50 (Cytochrome P450 2A6) | Ki (Cytochrome P450 2A6)
